In patent US20260200951A1, “NOVEL BORATE COMPOUND SOLUBLE IN ALIPHATIC HYDROCARBON SOLVENT” (AGC INC., priority 2023, published 2026):

Tests used:
[1] = Evaluation of solubility (visual appearance of stored solutions in aliphatic hydrocarbon solvents); assay type: physicochemical; conditions: for solubility room temperature, 3 days: stored at room temperature for 3 days
Text: The symbols used to evaluate solubility in the Tables mean the following: • ◯: homogeneous transparent solution state • Δ: cloudy state • x: two-phase separation or crystallization

[2] = Evaluation of polymerization performance (ethylene/1-octene solution polymerization with CGC catalyst, compound as cocatalyst); conditions: CGC 3 μmol, catalyst:cocatalyst=1:1, TIBA 3000 μmol, 40 ml solvent (MCH), 1-octene 1 mL, ethylene 8 atm, 50° C., 6 min
Procedure: A general polymerization method using the compound of the present invention (compound (1-2)) as a cocatalyst is shown below.
Into 100 mL autoclave in a glove box were added 1-octene, triisobutylaluminum (TIBA, 1.00 M hexane solution) and a solvent (methylcyclohexane (MCH)) to prepare a comonomer solution. A polymerization catalyst (dimethylsilylene(tert-butylamide)-(tetramethylcyclopentadienyl)-titanium (IV)-dichloride (CGC)), triisobutylaluminum (1.00 M hexane solution), and a solvent were added to prepare a catalyst solution at a predetermined concentration, and the solution was transferred to a Schlenk tube. Compound (1-2) (cocatalyst) was dissolved in a solvent, and a cocatalyst solution at a predetermined concentration was prepared and transferred to the Schlenk tube. The comonomer solution, the catalyst solution, and the cocatalyst solution were mixed, and prepared such that the total amount of the solvent and the total amount of triisobutylaluminum would be constant. The inside of the autoclave was purged with ethylene gas, the catalyst solution and the cocatalyst solution were successively added to the autoclave, and the ethylene gas pressure was immediately adjusted to a predetermined pressure, and the mixture was stirred at 50° C. for 6 min. […]

[3] = 0.6 wt % (≈3 mM) borate compound/n-hexane solution, visual observation
[4] = 50 wt % borate compound/methylcyclohexane solution, visual observation
[5] = 50 wt % borate compound/methylcyclohexane solution, stored at −15° C. for 3 days, visual observation

solubility at 3 days ([1]; organic solvent or mixture, 0.6 wt % (≈3 mM) borate compound/n-hexane solution, stored at −15° C. for 3 days, visual observation) | Structure (SMILES) | solubility room temperature, 3 days [1, 3] | solubility room temperature, 3 days [1, 4] | solubility −15° C., 3 days [1, 5] | solubility −15° C., 3 days ([1]; 0.6 wt % (≈3 mM) borate compound/n-hexane solution, stored at −15° C. for 3 days, visual observation) | solubility in aliphatic hydrocarbon solvents at low temperatures, in words ([1]; compared to Comparative Examples 1 to 5, summary of Tables 1 and 2) | ethylene-octene copolymer obtained [2]
< 3000 µM | CCCCCCCCCCCCCCCCN(CCCCCCCCCCCCCCCC)c1ccccc1 [Comparative Example 1, N,N-Dihexadecylanilinium tetrakis(pentafluorophenyl) borate] | ∘ | ∘ | ∘ |  |  | 
 | CCCCCCCCCCCCCCCCCC[NH+](CCCCCCCCCCCCCCCCCC)c1ccc(CCCC)cc1.Fc1c(F)c(F)c([B-](c2c(F)c(F)c(F)c(F)c2F)(c2c(F)c(F)c(F)c(F)c2F)c2c(F)c(F)c(F)c(F)c2F)c(F)c1F [Example 2, N,N-Dioctadecyl-4-butylanilinium tetrakis(pentafluorophenyl) borate] | ∘ | ∘ | ∘ | ∘ | remarkably high solubility | 47.3 mg
